Source: patent US4358458A, “Tertiary imidazolyl alcohols and method for the treatment of generalized and local infections caused by fungi and yeasts” (Nordmark-Werke GmbH, priority 1976, dated 1982)

Assays:
Candida albicans [1] = assay: oral activity in Candida-infected mice (survival); format: in vivo; conditions: 100 mg/kg orally twice a day for 7 days; for Number of Animals surviving on day 1 after infection / Number of Animals surviving on day 2 after infection / Number of Animals surviving on day 3 after infection / Number of Animals surviving on day 4 after infection / Number of Animals surviving on day 5 after infection / Number of Animals surviving on day 6 after infection / Number of Animals surviving on day 7 after infection: groups of 10 mice
Experimental: In order to determine oral activity, groups of 10 mice weighing approximately 20 g were pretreated for 2 days with intramuscular doses of 50 mg/kg of hydrocortisone in order to obtain firm rooting of the infection. The mice were then each infected intravenously with 500,000 Candida albicans germs and subsequently treated orally twice a day for 7 days with 100 mg/kg of the substance to be tested. In addition to an infected, but untreated control group, another group was treated for comparison with the comparison substance MICONAZOL.

LD50 (mice) = conditions: mouse, in vivo
Candida albicans [2] = assay: series dilution test in vitro, Candida albicans; format: cell-based; conditions: dilution b=1:100,000
Experimental: The antimicrobial activity of the compounds corresponding to general formula (I) in vitro was tested in a series dilution test with dilution ratios of from 1:10,000 to 1:200,000 against the germs Staphylococcus aureus, Trichophyton mentagrophytes and Candida albicans.
The results were evaluated by the following graduations of the growth inhibition level:
.phi.=complete inhibition
The following dilution ratios were selected as the dilution ratio V: […]

Structure (SMILES) | Number of Animals surviving on day 1 after infection (Candida albicans [1]) | Number of Animals surviving on day 2 after infection (Candida albicans [1]) | Number of Animals surviving on day 3 after infection (Candida albicans [1]) | Number of Animals surviving on day 4 after infection (Candida albicans [1]) | Number of Animals surviving on day 5 after infection (Candida albicans [1]) | Number of Animals surviving on day 6 after infection (Candida albicans [1]) | Number of Animals surviving on day 7 after infection (Candida albicans [1]) | LD50 (LD50 (mice)) [mg/kg] | growth inhibition level, Candida albicans (Candida albicans [2]) | animals still alive on the last day of the treatment (Candida albicans [1]; last day of treatment) [%]
OC(Cc1ccc(Cl)cc1)(Cn1ccnc1)c1ccc(Cl)cc1 (stereo not drawn) [Example 8, 1,2-bis-(4-chlorophenyl)-3-(imidazol-1-yl)-propan-2-ol nitrate] | 10 | 10 | 10 | 10 | 10 | 10 | 10 | 1000 | – | –
OC(Cc1ccc(Cl)cc1Cl)(Cn1ccnc1)c1ccc(Cl)cc1Cl (stereo not drawn) [Example 9, 1,2-bis-(2,4-dichlorophenyl)-3-(imidazol-1-yl)-propan-2-ol-nitrate] | 10 | 10 | 10 | 10 | 10 | 10 | 9 | 1000 | – | –
OC(Cc1ccccc1)(Cn1ccnc1)c1ccc(Cl)cc1 (stereo not drawn) [Example 15, 1-phenyl-2-(4-chlorophenyl)-3-(imidazol-1-yl)-propan-2-ol nitrate] | 10 | 10 | 10 | 10 | 10 | 10 | 9 | – | – | –
OC(Cc1ccc(Cl)cc1)(Cn1ccnc1)c1ccccc1 (stereo not drawn) [Example 28, 1-(4-chlorophenyl)-2-phenyl-3-(imidazol-1-yl)-propan-2-ol nitrate] | 10 | 10 | 10 | 10 | 10 | 10 | 10 | – | + ++ | –
Cl.OC(Cc1ccc(Cl)cc1)(Cn1ccnc1)c1ccc(Cl)cc1Cl (stereo not drawn) [Example 30, 1-(4-chlorophenyl)-2-(2,4-dichlorophenyl)-3-(imidazol-1-yl)-propan-2-ol hy drochloride] | 10 | 10 | 10 | 10 | 10 | 10 | 10 | 1000 | – | –
OC(Cc1ccc(Cl)cc1Cl)(Cn1ccnc1)c1ccccc1 (stereo not drawn) [Example 34, 1-(2,4-dichlorophenyl)-2-phenyl-3-(imidazol-1-yl)-propan-2-ol nitrate] | 10 | 10 | 10 | 10 | 10 | 10 | 9 | – | – | –
Clc1ccc(COC(Cn2ccnc2)c2ccc(Cl)cc2Cl)c(Cl)c1.O=[N+]([O-])O (stereo not drawn) [MICONAZOL, 1-[2,4-dichloro-β-(2,4-dichlorobenzyloxy)-phenethyl]imidazole nitrate, reference compound] | 10 | 10 | 8 | 8 | 6 | 4 | 2 | – | – | 20
